Reference: paper PMC8126888 (RSC Medicinal Chemistry, 2020)
pIC50: −log10 of the molar value. Read-outs that look alike come from different tables or passages of the source.

Legend:
in vitro [1] = details: human
physchem = details: HPLC, Ascentis Express RP Amide column, pH 7.4, eLogD, experimental
[2] = tested on: Trypanosoma cruzi, Tulahuen CL2, beta-galactosidase strain; experiment: microbe, parasite or virus in culture; details: for pIC50: MRC5, read-out: T. cruzi Tulahuen C4 (LacZ) IC50; for IC50: MRC5, read-out: T. cruzi Tulahuen C4 (LacZ) IC50 (uM)
[3] = tested on: Leishmania infantum MHOM/MA(BE)/67/ITMAP263 intracellular amastigotes; experiment: microbe, parasite or virus in culture; details: Macrophage, in Mus musculus; for pIC50: read-out: L. infantum MHOM/MA(BE)/67/ITMAP263 intracellular amastigotes IC50, intracellular amastigotes
in vitro [4] = details: human, microsomes, human liver microsomes
in vitro [5] = details: PAMPA
[6] = tested on: primary peritoneal mouse macrophages (PMM); experiment: cells; details: Macrophage; for pIC50: read-out: PMM IC50; for IC50: read-out: PMM IC50 (uM)
in vitro [7] = details: human, HFF-1 cells
in vitro [8] = details: mouse, microsomes, pH 7.4, MLM CLint (uL/min/mg), mouse liver microsomes
in vitro [9] = details: human, HepG2 cells
in vitro [10] = details: PAMPA; remark: listed apart in the source
[11] = read-out: L. Inf. pIC50, from L. infantum intracellular amastigote IC50 (converted)
[12] = read-out: L. infantum MHOM/MA(BE)/67/ITMAP263 intracellular amastigotes IC50 (uM), intracellular amastigotes

## COc1ccc(C(=O)N2CCCC2)cc1S(=O)(=O)N(Cc1ccccc1)Cc1ccccc1 [DNDI0003368297]
In vitro [1]
  CC50 at 3 days: > 64 µM
physchem
  chromatographic logD: 4.1
[2]
  pIC50: < 4.19
[3]; [11]
  IC50: 0.49 µM
[3]
  pIC50: 6.32
In vitro [4]; pH 7.4, HLM CLint
  microsomal CLint at 0.5 μM: 796 µL/min/mg
In vitro [5]
  Papp: 4.91 ×10⁻⁶ cm/s
[6]
  pIC50: 4.49

## COc1ccc(OC)c(S(=O)(=O)N(Cc2ccccc2)C2CCCN(C(C)=O)C2)c1 (stereo not shown) [DNDI0003367307]
In vitro [1]
  CC50 at 3 days: > 64 µM
physchem
  chromatographic logD: 3.3
[2]
  pIC50: 4.27
[3]; [11]
  IC50: > 64 µM
[3]
  pIC50: < 4.19
In vitro [5]
  Papp: 16.4 ×10⁻⁶ cm/s
[6]
  pIC50: < 4.19

## COc1ccc(OC)c(S(=O)(=O)N(Cc2ccc(F)cc2)Cc2nc(C)no2)c1 [DNDI0003368295]
In vitro [1]
  CC50 at 3 days: > 64 µM
[2]
  pIC50: 4.52
[3]; [11]
  IC50: 7.76 µM
[3]
  pIC50: 5.11
In vitro [4]; pH 7.4, HLM CLint
  microsomal CLint at 0.5 μM: 350 µL/min/mg
In vitro [5]
  Papp: 8.92 ×10⁻⁶ cm/s
[6]
  pIC50: < 4.19

## COc1ccc(OC)c(S(=O)(=O)N(CCN2CCOCC2)Cc2ccccc2)c1 [DNDI0003368294]
In vitro [1]
  CC50 at 3 days: > 64 µM
physchem
  chromatographic logD: 3.4
[2]
  pIC50: < 4.19
[3]; [11]
  IC50: 9.12 µM
[3]
  pIC50: 5.04
In vitro [4]; pH 7.4, HLM CLint
  microsomal CLint at 0.5 μM: 227 µL/min/mg
In vitro [5]
  Papp: 5.27 ×10⁻⁶ cm/s
[6]
  pIC50: < 4.19

## O=S1(=O)NC(Cc2ccccc2)COc2ccc(F)cc21 (stereo not shown) [DNDI0003368460]
In vitro [1]
  CC50 at 3 days: > 64 µM
physchem
  chromatographic logD: 3.3
[2]
  pIC50: < 4.19
[3]; [11]
  IC50: > 64 µM
[3]
  pIC50: < 4.19
In vitro [5]
  Papp: 26.2 ×10⁻⁶ cm/s
[6]
  pIC50: < 4.19

## CNC(=O)c1ccc(OC)c(S(=O)(=O)N(Cc2ccccc2)Cc2ccccc2)c1 [DNDI0003368298]
In vitro [1]
  CC50 at 3 days: 4.87 µM
physchem
  chromatographic logD: 3.8
[2]
  pIC50: < 4.19
[3]; [11]
  IC50: 0.708 µM
[3]
  pIC50: 6.15
In vitro [4]; pH 7.4, HLM CLint
  microsomal CLint at 0.5 μM: 316 µL/min/mg
In vitro [5]
  Papp: 10.4 ×10⁻⁶ cm/s
[6]
  pIC50: 4.29

## COCCN(Cc1ccc(F)cc1)S(=O)(=O)c1cc(C#N)ccc1OC [DNDI0003368395]
In vitro [1]
  CC50 at 3 days: > 64 µM
[2]
  pIC50: < 4.19
[3]; [11]
  IC50: 8.91 µM
[3]
  pIC50: 5.05
In vitro [4]; pH 7.4, HLM CLint
  microsomal CLint at 0.5 μM: < 23 µL/min/mg
In vitro [5]
  Papp: 15.3 ×10⁻⁶ cm/s
[6]
  pIC50: < 4.19

## CCCCOc1ncccc1S(=O)(=O)NCc1ccc(F)cc1 [DNDI0003368396]
In vitro [1]
  CC50 at 3 days: > 64 µM
physchem
  chromatographic logD: 3.8
[2]
  pIC50: 4.53
[3]; [11]
  IC50: 8.71 µM
[3]
  pIC50: 5.06
In vitro [4]; pH 7.4, HLM CLint
  microsomal CLint at 0.5 μM: 1650 µL/min/mg
In vitro [5]
  Papp: 14.9 ×10⁻⁶ cm/s
[6]
  pIC50: < 4.19

## COC(=O)C(Cc1ccccc1)NS(=O)(=O)c1ccccc1Br (stereo not shown) [DNDI0003369003]
In vitro [1]
  CC50 at 3 days: > 64 µM
physchem
  chromatographic logD: 3.4
[2]
  pIC50: 4.24
[3]; [11]
  IC50: > 64 µM
[3]
  pIC50: < 4.19
In vitro [5]
  Papp: 20.4 ×10⁻⁶ cm/s
[6]
  pIC50: < 4.19

## COc1ccc(C#N)cc1S(=O)(=O)N(Cc1ccccc1)Cc1ccccc1 [DNDI0003366138]
In vitro [1]
  CC50 at 3 days: 40.4 µM
[2]
  pIC50: 5.09
[3]; [11]
  IC50: 0.437 µM
[3]
  pIC50: 6.36
In vitro [4]; pH 7.4, HLM CLint
  microsomal CLint at 0.5 μM: 304 µL/min/mg
In vitro [5]
  Papp: 3.93 ×10⁻⁶ cm/s
[6]
  pIC50: < 4.19

## CN(C)CCN(Cc1ccccc1)S(=O)(=O)c1ccc(N2C(=O)CCC2=O)cc1 [DNDI0003368291]
In vitro [1]
  CC50 at 3 days: > 64 µM
physchem
  chromatographic logD: 2.5
[2]
  pIC50: < 4.19
[3]; [11]
  IC50: > 64 µM
[3]
  pIC50: < 4.19
In vitro [4]; pH 7.4, HLM CLint
  microsomal CLint at 0.5 μM: < 23 µL/min/mg
In vitro [5]
  Papp: 1.64 ×10⁻⁶ cm/s
[6]
  pIC50: < 4.19

## CN(C)CCN(Cc1ccccc1)S(=O)(=O)c1ccc(NC(=O)CCCO)cc1 [DNDI0003368293]
In vitro [1]
  CC50 at 3 days: > 64 µM
physchem
  chromatographic logD: 2.9
[2]
  pIC50: < 4.19
[3]; [11]
  IC50: > 64 µM
[3]
  pIC50: < 4.19
In vitro [4]; pH 7.4, HLM CLint
  microsomal CLint at 0.5 μM: < 23 µL/min/mg
In vitro [5]
  Papp: 0.21 ×10⁻⁶ cm/s
[6]
  pIC50: < 4.19

## CN(C)CCN(Cc1ccccc1)S(=O)(=O)c1ccc(N)cc1 [DNDI0003368290]
In vitro [1]
  CC50 at 3 days: > 64 µM
physchem
  chromatographic logD: 2.5
[2]
  pIC50: < 4.19
[3]; [11]
  IC50: > 64 µM
[3]
  pIC50: < 4.19
In vitro [4]; pH 7.4, HLM CLint
  microsomal CLint at 0.5 μM: 56 µL/min/mg
In vitro [5]
  Papp: 0.88 ×10⁻⁶ cm/s
[6]
  pIC50: < 4.19

## CN(C)CCN(Cc1ccccc1)S(=O)(=O)c1ccccc1S(C)(=O)=O [DNDI0003367255]
In vitro [1]
  CC50 at 3 days: > 64 µM
physchem
  chromatographic logD: 2.6
[2]
  pIC50: < 4.19
[3]; [11]
  IC50: > 64 µM
[3]
  pIC50: < 4.19
In vitro [5]
  Papp: 2.04 ×10⁻⁶ cm/s
[6]
  pIC50: < 4.19

## COc1ccc(C(=O)O)cc1S(=O)(=O)N(Cc1ccccc1)Cc1ccccc1 [DNDI0003368287]
In vitro [1]
  CC50 at 3 days: > 64 µM
[2]
  pIC50: < 4.19
[3]; [11]
  IC50: 57.5 µM
[3]
  pIC50: 4.24
In vitro [4]; pH 7.4, HLM CLint
  microsomal CLint at 0.5 μM: < 23 µL/min/mg
In vitro [5]
  Papp: 17.8 ×10⁻⁶ cm/s
[6]
  pIC50: < 4.19

## C=C(c1ccc(F)cc1)N(Cc1ccccc1)S(=O)(=O)c1cc(Cl)ccc1O [DNDI0003371156]
In vitro [1]
  CC50 at 3 days: 3.61 µM
physchem
  chromatographic logD: 5.1
[2]
  pIC50: 5.65
[3]; [11]
  IC50: 7.41 µM
[3]
  pIC50: 5.13
In vitro [5]
  Papp: 1.41 ×10⁻⁶ cm/s
[6]
  pIC50: 5.10

## COc1ccc(C(=O)N2CCOCC2)cc1S(=O)(=O)N(Cc1ccccc1)Cc1ccccc1 [DNDI0003368296]
In vitro [1]
  CC50 at 3 days: > 64 µM
[2]
  pIC50: < 4.19
[3]; [11]
  IC50: 0.457 µM
[3]
  pIC50: 6.34
In vitro [4]; pH 7.4, HLM CLint
  microsomal CLint at 0.5 μM: 810 µL/min/mg
In vitro [5]
  Papp: 6.19 ×10⁻⁶ cm/s
[6]
  pIC50: 4.34

## O=S(=O)(c1cc(F)ccc1F)N(CCO)Cc1ccccc1 [DNDI0003368289]
In vitro [1]
  CC50 at 3 days: > 64 µM
physchem
  chromatographic logD: 3.2
[2]
  pIC50: 4.33
[3]; [11]
  IC50: > 64 µM
[3]
  pIC50: < 4.19
In vitro [4]; pH 7.4, HLM CLint
  microsomal CLint at 0.5 μM: < 23 µL/min/mg
In vitro [5]
  Papp: 15.7 ×10⁻⁶ cm/s
[6]
  pIC50: < 4.19

## COc1ncccc1S(=O)(=O)N(Cc1ccccc1)Cc1ccccc1 [DNDI0003368299]
In vitro [1]
  CC50 at 3 days: 3.81 µM
[2]
  pIC50: 5.20
[3]; [11]
  IC50: 0.646 µM
[3]
  pIC50: 6.19
In vitro [4]; pH 7.4, HLM CLint
  microsomal CLint at 0.5 μM: 849 µL/min/mg
In vitro [5]
  Papp: 2.05 ×10⁻⁶ cm/s
[6]
  pIC50: < 4.19

## COc1ccc(N2CCN(C)CC2)cc1S(=O)(=O)N(Cc1ccc(F)cc1)Cc1ccc(F)cc1 [DNDI0003389645]
In vitro [1]
  CC50 at 3 days: 28.7 µM
physchem
  chromatographic logD: 4.4
[2]
  IC50: 2.8 µM
In vitro [7]
  CC50: 8.45 µM
[3]; [11]
  IC50: 0.398 µM
[3]; [12]
  IC50: 0.4 µM
In vitro [4]; pH 7.4, HLM CLint (uL/min/mg)
  microsomal CLint at 0.5 μM: 152 µL/min/mg
In vitro [8]
  microsomal CLint at 0.5 μM: 212 µL/min/mg
In vitro [9]
  CC50: 26.8 µM
In vitro [10]
  Papp: 0.71 ×10⁻⁶ cm/s
[6]
  IC50: 8 µM

## COc1ccc(C(=O)N2CCN(C)CC2)cc1S(=O)(=O)N(Cc1ccc(F)cc1)Cc1ccc(F)cc1 [DNDI0003371173]
In vitro [1]
  CC50 at 3 days: 25.8 µM
physchem
  chromatographic logD: 4.7
[2]
  IC50: 11.1 µM
In vitro [7]
  CC50: 4.16 µM
[3]; [11]
  IC50: 0.537 µM
[3]; [12]
  IC50: 0.54 µM
In vitro [4]; pH 7.4, HLM CLint (uL/min/mg)
  microsomal CLint at 0.5 μM: 585 µL/min/mg
In vitro [8]
  microsomal CLint at 0.5 μM: 2240 µL/min/mg
In vitro [9]
  CC50: 49.5 µM
In vitro [10]
  Papp: 3.23 ×10⁻⁶ cm/s
[6]
  IC50: 32 µM
